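Tested at 5 concentrations; 48 h exposure; 96-well plates; endpoints linearly interpolated, else capped at highest concentration. TGI: total growth inhibition.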
Experiments:
Assay in all cases: inhibition of tumour cell growth, NCI panel, 48 h
HT29 colon = tested on: HT29 colon
UACC-257 melanoma = tested on: UACC-257 melanoma
DU-145 prostate = tested on: DU-145 prostate
SF-539 CNS = tested on: SF-539 CNS
ACHN renal = tested on: ACHN renal
SNB-75 CNS = tested on: SNB-75 CNS
HCC-2998 colon = tested on: HCC-2998 colon
UO-31 renal = tested on: UO-31 renal
PC-3 prostate = tested on: PC-3 prostate
TK-10 renal = tested on: TK-10 renal
SK-MEL-5 melanoma = tested on: SK-MEL-5 melanoma
SF-268 CNS = tested on: SF-268 CNS
CAKI-1 renal = tested on: CAKI-1 renal
K-562 leukemia = tested on: K-562 leukemia
MDA-N = tested on: MDA-N
SN12C renal = tested on: SN12C renal
U251 CNS = tested on: U251 CNS
RPMI-8226 leukemia = tested on: RPMI-8226 leukemia
NCI-H23 lung = tested on: NCI-H23 lung
EKVX NSCLC = tested on: EKVX NSCLC
KM12 colon = tested on: KM12 colon
COLO 205 colon = tested on: COLO 205 colon
MOLT-4 leukemia = tested on: MOLT-4 leukemia
IGROV1 ovarian = tested on: IGROV1 ovarian
NCI-H460 lung = tested on: NCI-H460 lung
A549 NSCLC = tested on: A549 NSCLC
SF-295 CNS = tested on: SF-295 CNS
HOP-92 NSCLC = tested on: HOP-92 NSCLC
LOX IMVI melanoma = tested on: LOX IMVI melanoma
MALME-3M melanoma = tested on: MALME-3M melanoma
HOP-62 NSCLC = tested on: HOP-62 NSCLC
CCRF-CEM leukemia = tested on: CCRF-CEM leukemia
786-0 renal = tested on: 786-0 renal
MDA-MB-231 breast = tested on: MDA-MB-231 breast
SK-MEL-2 melanoma = tested on: SK-MEL-2 melanoma
OVCAR-5 ovarian = tested on: OVCAR-5 ovarian
MCF7 breast = tested on: MCF7 breast
HCT-15 colon = tested on: HCT-15 colon
OVCAR-3 ovarian = tested on: OVCAR-3 ovarian
OVCAR-8 ovarian = tested on: OVCAR-8 ovarian
NCI-H226 lung = tested on: NCI-H226 lung
NCI/ADR-RES ovarian = tested on: NCI/ADR-RES ovarian
SW-620 colon = tested on: SW-620 colon
M14 melanoma = tested on: M14 melanoma
SNB-19 CNS = tested on: SNB-19 CNS
NCI-H522 lung = tested on: NCI-H522 lung
MDA-MB-435 = tested on: MDA-MB-435
OVCAR-4 ovarian = tested on: OVCAR-4 ovarian
HS 578T breast = tested on: HS 578T breast
SK-MEL-28 melanoma = tested on: SK-MEL-28 melanoma
HCT-116 colon = tested on: HCT-116 colon

Measured: TGI

CC[C@H](CC[C@@H](C)[C@H]1CC[C@H]2[C@@H]3CC=C4C[C@@H](O)CC[C@]4(C)[C@H]3CC[C@]12C)C(C)C
> 100 µM: all assays above

From PubChem BioAssay (NCI)
